Laboratory results published in patent US4734428A, “Aminoethylimidazole and cytoprotective and gastric antisecretory composition containing the same” (Jouveinal S.A., priority 1984, dated 1988).
Read-outs that look alike come from different tables or passages of the source.

What was measured:
[1] = system: synthesis of PGE2; assay: increase of PGE2 synthesis in washed rabbit platelets; format: cell-based; set-up: key: +: the effect also causes an increase in the synthesis of PGE2; conditions: in vitro
Protocol: (§1) The test performed was carried out in vitro on washed rabbit platelets. It was based on the publications of NEEDLEMAN (1977. Proc. Natl. Acad. Sci. 74, 1716) and SALMON (1982, Cardiovascular Pharmacol. of the Prostaglandins--Raven Press N.Y. pp. 7 to 22). It makes it possible both to determine the reduction of the synthesis of TXB2 and also the possible increase of the synthesis of PGE2. Thus, it is possible to determine the activity of the products on the PG:TX ratio.
(§2) The results given in the following tables are expressed in CEx%, i.e. in micromolar concentrations per liter permitting an inhibition by x% of the synthesis of TXB2. In the adjacent column, the symbol + means that the effect also causes an increase in the synthesis of PGE2.

[2] = biological target: T1, thromboxane synthetase (Oryctolagus cuniculus, UniProt G1TAZ9); assay: inhibition of TXB2 synthesis (thromboxane synthetase) in washed rabbit platelets; format: cell-based; conditions: for activity relative to 1-benzyl imidazole: reference 1-benzyl imidazole
T1 construct: carried out in vitro on washed rabbit platelets; endogenous in cells; host or cells: washed rabbit platelets
T1 sequence (G1TAZ9 1-530): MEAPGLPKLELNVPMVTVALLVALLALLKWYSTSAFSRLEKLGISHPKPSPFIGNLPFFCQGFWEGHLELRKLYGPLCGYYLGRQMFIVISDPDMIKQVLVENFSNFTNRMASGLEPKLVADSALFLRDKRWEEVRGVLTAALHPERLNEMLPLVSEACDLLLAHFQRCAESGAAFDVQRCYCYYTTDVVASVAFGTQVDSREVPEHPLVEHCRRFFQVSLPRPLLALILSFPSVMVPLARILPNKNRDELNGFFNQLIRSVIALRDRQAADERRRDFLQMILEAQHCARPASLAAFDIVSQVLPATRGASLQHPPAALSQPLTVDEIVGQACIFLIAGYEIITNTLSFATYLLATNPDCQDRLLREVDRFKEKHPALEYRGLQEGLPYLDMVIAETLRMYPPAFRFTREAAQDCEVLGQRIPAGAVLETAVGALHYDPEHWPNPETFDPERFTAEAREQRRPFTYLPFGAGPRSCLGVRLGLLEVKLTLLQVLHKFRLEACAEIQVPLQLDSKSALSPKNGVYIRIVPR
Protocol: as §1, §2

[3] = system: gastric mucosa; assay: cytoprotection test, gastric ulceration caused by absolute ethanol; format: in vivo, Sprague Dawley rats; conditions: rat; for ED50 values relative to the two routes compared: oral versus parenteral (s.c.) route
Protocol: The cytoprotective activity was investigated in connection with the stressing of the gastric mucosa caused by ethanol.
The cytoprotection test was carried out in accordance with the procedure described by A. ROBERT et al (Gastroenterology 1979-77-433). Batches of six male Sprague Dawley rats, which had not received solid food for 24 hours before the test, received by the oral route 1 ml/rat of absolute ethanol, after receiving the product to be tested 30 minutes beforehand by the subcutaneous […] 1 hour beforehand by the oral route. One hour after ingesting the ethanol, the rats were killed by stretching and their stomachs were carefully removed, opened along the greater curvature, washed under running water and spread out. The ulcerations were then marked and measured under a binocular lamp. An index representing the sum of the lengths of the ulcers is then determined for each rat and the mean value of these indexes for each batch is calculated and compared with that of the control batch using the Student "t" test. The 50% effective dose (ED50) is then graphically determined when possible. In other cases, the percentage inhibition obtained with the aid of the maximum tested dose is given. The results are given in table 5 for the products of examples 1 to 8 and in table 6 for the products of examples 9 to 12.

[4] = acute toxicity (LD50, mice); conditions: mouse, in vivo, 14 days
Protocol: The acute toxicity of the products was investigated in male SWISS/IOPS mice weighing approximately 22 g. The 50% lethal dose (LD50) was calculated by the method of L. J. REED and H. MUNCH (Am. J. Hyg. 1939-37-493) 14 days following the […] treatment of batches of 10 animals per dose and on the basis of 4 to 6 doses per product. The results of this investigation are given in table 3 for the products of examples 1 to 8 and in table 4 for the products of examples 9 to 12.

[5] = system: thromboxane synthetase; conditions: human platelets; literature; cited from earlier work
[6] = washed rabbit platelets, in vitro, 50% inhibition of TXB2 synthesis, read-out: Inh. TX B2 CE50%
[7] = sc, s.c. route, 30 minutes before absolute ethanol, read-out: ED50% s.c. route
[8] = oral route, read-out: LD50 % oral route
[9] = ip, read-out: LD50 % i.p. route
[10] = oral route, 1 hour before absolute ethanol, read-out: ED50% oral route

Row | Compound | Incr. PGE2 [1] | IC50 [2, 6] [µM] | ED50 [3, 7] [mg/kg] | LD50 at 336 h [4, 8] [mg/kg] | LD50 at 336 h [4, 9] [mg/kg] | also measured
1 | CCC(Cn1ccnc1)(c1ccccc1)N(C)C (single isomer, unassigned) [EX. 12, 1-[(2-phenyl-2-ethyl)-2-N,N-dimethylaminoethyl]-imidazole] | + | 11.3 | 5.3 | 780 |  | 
2 | c1ccc(Cn2ccnc2)cc1 [1-Benzyl-Imidazole, 1-benzyl imidazole, reference compound] |  |  |  |  |  | IC50 [2]: 13.4 µM; thromboxane synthetase inhibition in words [5]: thromboxane synthetase inhibitor
3 | COc1ccc(CC(C)(Cn2ccnc2)N(C)C)cc1 (stereo not drawn) [EX. 9, 1-[(2-p-methoxybenzyl-2-methyl)-2-N,N-dimethylaminoethyl]imidazole dihemimaleate] | + | 4.5 |  | 758 | 231 | activity relative to 1-benzyl imidazole ([2]; washed rabbit platelets): equal to clearly superior activity
4 | CN(C)C(C)(COc1ccc(Cl)cc1)Cn1ccnc1 (stereo not drawn) [EX. 10] | + | 13.2 | 10 | 86 | 32 | 
5 | CN(C)C(C)(Cn1ccnc1)c1ccc(-c2ccccc2)cc1 (stereo not drawn) [EX. 11] | + | 11.2 |  | 183 |  | ED40 ([3]; sc, s.c. route, 30 minutes before absolute ethanol): 10 mg/kg
6 | CCC(Cn1ccnc1)(c1ccccc1)N(C)C (stereo not drawn) [Ex. 1A, 1-[(2-phenyl-2-ethyl)-2-N,N-dimethylaminoethyl]-imidazole] | + | 3.7 | 11 | 559 | 326 | activity relative to 1-benzyl imidazole ([2]; washed rabbit platelets): equal to clearly superior activity; ED50 [3, 10]: 13 mg/kg; ED50 values relative to the two routes compared [3]: roughly equivalent
7 | CCC(CN(C)C)(c1ccccc1)n1ccnc1 (stereo not drawn) [Ex. 1B, 1-[(1-phenyl-1-ethyl)-2-N,N-dimethylaminoethyl]-imidazole] | + | 17.4 | 8.1 | 285 | 145 | ED50 [3, 10]: 7.1 mg/kg; ED50 values relative to the two routes compared [3]: roughly equivalent
8 | CCC(Cn1ccnc1C)(c1ccccc1)N(C)C (stereo not drawn) [Ex. 2A, 1-[(2-phenyl-2-ethyl)-2-N,N-dimethylaminoethyl]-2-methylimidazole] |  |  | 12.6 | 500 | 157 | IC10 ([2]; washed rabbit platelets, in vitro, 10% inhibition of TXB2 synthesis, read-out: Inh. TX B2 CE10%): 50 µM; ED50 [3, 10]: 12 mg/kg; ED50 values relative to the two routes compared [3]: roughly equivalent
9 | CCC(CN(C)C)(c1ccccc1)n1ccnc1C (stereo not drawn) [Ex. 2B, 1-[(1-phenyl-1-ethyl)-2-N,N-dimethylaminoethyl]-2-methylimidazole] |  |  | 10 | 393 | 137 | IC18 ([2]; washed rabbit platelets, in vitro, 18% inhibition of TXB2 synthesis, read-out: Inh. TX B2 CE18%): 50 µM; ED50 [3, 10]: 12 mg/kg; ED50 values relative to the two routes compared [3]: roughly equivalent
10 | CCC(Cn1cnc(-c2ccccc2)c1-c1ccccc1)(c1ccccc1)N(C)C (stereo not drawn) [Ex. 3A] |  |  |  | > 1150 |  | 
11 | CCC(CN(C)C)(c1ccccc1)n1cnc(-c2ccccc2)c1-c1ccccc1 (stereo not drawn) [Ex. 3B] |  |  |  | > 1150 |  | ED50 [3, 10]: 26 mg/kg
12 | CCc1nc(C)cn1C(CC)(CN(C)C)c1ccccc1 (stereo not drawn) [Ex. 4B] |  |  | 4 | 298 | 47 | 
13 | CCC(Cn1ccnc1-c1ccccc1)(c1ccccc1)N(C)C (stereo not drawn) [Ex. 5A] |  | 50 |  |  |  | 
14 | CCC(CN(C)C)(c1ccccc1)n1ccnc1-c1ccccc1 (stereo not drawn) [Ex. 5B] |  |  |  | 840 |  | IC20 ([2]; washed rabbit platelets, in vitro, 20% inhibition of TXB2 synthesis, read-out: Inh. TX B2 CE20%): 50 µM
15 | CN(C)C(C)(C)Cn1ccnc1 [Ex. 6A] |  |  |  | > 1180 |  | IC41 ([2]; washed rabbit platelets, in vitro, 41% inhibition of TXB2 synthesis, read-out: Inh. TX B2 CE41%): 50 µM
16 | CN(C)CC(C)(C)n1ccnc1 [Ex. 6B] |  | 50 |  | > 1180 |  | 
17 | CCC(Cc1ccccc1)(Cn1ccnc1)N(C)C (stereo not drawn) [Ex. 7A] | + | < 1 | 26.6 | 480 |  | 
18 | CCC(Cc1ccccc1)(CN(C)C)n1ccnc1 (stereo not drawn) [Ex. 7B] |  |  | 8.5 | 384 |  | IC35 ([2]; washed rabbit platelets, in vitro, 35% inhibition of TXB2 synthesis, read-out: Inh. TX B2 CE35%): 100 µM
19 | CCCCCC(Cn1ccnc1)(c1ccccc1)N(C)C (stereo not drawn) [Ex. 8A] | + | 0.56 | 25 | 287 |  | activity relative to 1-benzyl imidazole ([2]; washed rabbit platelets): equal to clearly superior activity
20 | CCCCCC(CN(C)C)(c1ccccc1)n1ccnc1 (stereo not drawn) [Ex. 8B] | + | 2.15 | 9 | 562 | 346 | activity relative to 1-benzyl imidazole ([2]; washed rabbit platelets): equal to clearly superior activity
